Reference: the supplement of paper PMC10307832

Key:
Assay in all cases: relative viability (nuclei count vs DMSO), 5 days (fraction); higher = more cells survive
[1] = compound: CC(C)C[C@H](NC(=O)[C@H](CCc1ccccc1)NC(=O)CN1CCOCC1)C(=O)N[C@@H](Cc1ccccc1)C(=O)N[C@@H](CC(C)C)C(=O)[C@@]1(C)CO1 [Carfilzomib] + Cc1cc(Nc2cc(N3CCN(C)CC3)nc(Sc3ccc(NC(=O)C4CC4)cc3)n2)n[nH]1 [Tozasertib] (partner 0.1 µM)
How it was run: (§1)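 Lung cancer cell lines, seeded in 1536-well plates, were treated the following day by pin tool with a single drug or with five library-drug doses (not always all listed) in √10 steps on top of a fixed anchor-drug dose. Cells were fixed and nuclei stained in one step after 5 days, and nuclei were counted. Relative viability is the nuclei count for treated wells divided by that for vehicle wells, reported as medians of duplicate plates.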

[2] = compound: O=C(c1cc(Cc2n[nH]c(=O)c3ccccc23)ccc1F)N1CCN(C(=O)C2CC2)CC1 [Olaparib] + Cc1nc(Nc2ncc(C(=O)Nc3c(C)cccc3Cl)s2)cc(N2CCN(CCO)CC2)n1 [Dasatinib] (partner 0.075 µM)
How it was run: as §1

[3] = compound: C[C@@H](Oc1cc(-c2cnn(C3CCNCC3)c2)cnc1N)c1c(Cl)ccc(F)c1Cl [Crizotinib] + CC(=O)Nc1cccc(-n2c(=O)n(C3CC3)c(=O)c3c(Nc4ccc(I)cc4F)n(C)c(=O)c(C)c32)c1 [Trametinib] (partner 0.02 µM)
How it was run: as §1

[4] = compound: O=C(c1cc(Cc2n[nH]c(=O)c3ccccc23)ccc1F)N1CCN(C(=O)C2CC2)CC1 [Olaparib] + COc1cccc2cc(-c3nc([C@H]4CC[C@H](C(=O)O)CC4)n4ncnc(N)c34)[nH]c12 [OSI-027] (partner 0.5 µM)
How it was run: as §1

Row | Cell Line | relative viability ([1]; first compound 0.001 µM) | relative viability ([1]; first compound 0.003162 µM) | relative viability ([1]; first compound 0.01 µM) | relative viability ([1]; first compound 0.03162 µM) | relative viability ([1]; first compound 0.1 µM) | relative viability ([2]; first compound 0.08 µM) | relative viability ([2]; first compound 0.253 µM) | relative viability ([2]; first compound 2.53 µM) | relative viability ([2]; first compound 8 µM) | relative viability ([3]; first compound 0.01 µM) | relative viability ([3]; first compound 0.03162 µM) | relative viability ([3]; first compound 0.1 µM) | relative viability ([3]; first compound 0.3162 µM) | relative viability ([3]; first compound 1 µM) | relative viability ([4]; first compound 0.08 µM) | relative viability ([4]; first compound 0.253 µM) | relative viability ([4]; first compound 2.53 µM) | relative viability ([4]; first compound 8 µM)
1 | 201T | 0.957 | 1 | 1.04 | 0.993 | 0.754 | 0.576 | 0.558 | 0.46 | 0.501 | 0.678 | 0.706 | 0.747 | 0.72 | 0.754 | 0.724 | 0.611 | 0.699 | 0.764
2 | A-427 | 0.207 | 0.236 | 0.198 | 0.099 | 0.103 | 0.793 | 0.691 | 0.586 | 0.54 | 0.717 | 0.771 | 0.724 |  | 0.78 | 0.558 | 0.469 | 0.396 | 0.389
3 | ABC-1 | 0.196 | 0.193 | 0.196 | 0.212 | 0.211 | 0.639 | 0.609 | 0.586 | 0.676 |  |  |  |  |  | 0.801 | 0.52 | 0.488 | 0.55
4 | BEN | 0.554 | 0.547 | 0.591 | 0.553 | 0.421 |  | 0.32 | 0.325 | 0.35 |  | 0.982 | 0.948 | 1.15 | 1.17 |  | 0.268 | 0.301 | 0.296
5 | CAL-12T | 0.313 | 0.393 | 0.333 | 0.251 | 0.125 | 0.597 | 0.281 | 0.363 | 0.283 | 0.268 | 0.413 | 0.32 | 0.393 | 0.374 | 1.05 | 0.568 | 0.602 | 0.627
6 | COR-L23 | 0.216 | 0.319 | 0.216 | 0.0505 | 0.0802 | 0.539 | 0.437 | 0.314 | 0.23 | 0.567 | 0.605 | 0.563 | 0.525 | 0.633 | 0.723 | 0.635 | 0.712 | 0.424
7 | COR-L 105 | 0.328 | 0.311 | 0.411 | 0.263 | 0.225 | 0.34 | 0.403 | 0.356 | 0.288 | 0.426 | 0.463 | 0.413 | 0.41 | 0.43 | 0.77 | 0.679 | 0.487 | 0.584
8 | ChaGo-K-1 | 0.207 | 0.236 | 0.224 | 0.225 | 0.157 | 0.576 | 0.577 | 0.567 | 0.445 | 0.867 | 0.92 | 0.876 | 0.825 | 0.915 | 0.649 | 0.506 | 0.533 | 0.464
9 | EKVX | 0.346 | 0.432 | 0.435 | 0.34 | 0.281 | 0.271 | 0.406 | 0.428 | 0.599 | 0.342 | 0.367 | 0.347 | 0.298 | 0.374 | 0.79 | 0.626 | 0.61 | 0.765
10 | EMC-BAC-2 | 0.284 | 0.298 | 0.305 | 0.212 | 0.194 | 0.365 | 0.382 | 0.471 | 0.338 | 0.865 | 0.803 | 0.914 |  | 0.893 | 0.41 | 0.364 | 0.357 | 0.358
11 | EPLC-272H | 0.282 | 0.25 | 0.317 | 0.105 | 0.0498 | 0.43 | 0.293 | 0.414 | 0.338 | 0.277 | 0.281 | 0.299 |  | 0.307 | 0.334 | 0.286 | 0.31 | 0.299
12 | H3255 | 0.697 | 0.604 | 0.686 | 0.737 | 0.392 | 0.401 | 0.274 | 0.491 | 0.425 | 0.557 | 0.666 | 0.602 | 0.652 | 0.479 | 0.591 | 0.56 | 0.764 | 0.548
13 | HARA | 0.11 | 0.106 | 0.117 | 0.0557 | 0.0586 | 0.36 | 0.286 | 0.255 | 0.237 | 0.646 | 0.525 | 0.958 | 0.976 | 0.564 | 0.68 | 0.446 | 0.47 | 0.438
14 | HCC-15 | 0.385 | 0.393 | 0.385 | 0.356 | 0.0753 | 0.659 | 0.584 | 0.655 | 0.631 | 0.396 | 0.346 | 0.38 |  |  | 0.83 | 0.652 | 0.6 | 0.638
15 | HCC-44 | 0.826 | 1.05 | 1.22 | 0.303 | 0.157 |  |  |  |  | 0.933 | 1.04 | 1.03 | 1.15 | 1.04 | 0.55 | 0.424 | 0.434 | 0.565
16 | HCC-78 | 0.356 | 0.61 | 0.401 | 0.358 | 0.287 | 0.451 | 0.31 | 0.426 | 0.331 | 0.631 | 0.873 | 0.723 | 0.706 | 0.909 | 0.373 | 0.379 | 0.349 | 0.332
17 | HCC-366 | 0.0847 | 0.132 | 0.185 | 0.106 | 0.0351 | 0.484 | 0.503 | 0.498 | 0.253 | 0.342 | 0.388 | 0.367 |  | 0.322 | 0.856 | 0.796 | 0.762 | 0.568
18 | HCC-827 | 0.366 | 0.397 | 0.47 | 0.411 | 0.265 | 0.27 | 0.315 | 0.387 | 0.281 | 0.462 | 0.567 | 0.53 | 0.508 | 0.552 | 0.772 | 0.732 | 0.872 | 0.65
